Series [1] can be described thus: Solubility of the compound in sodium phosphate buffer at pH 7.4 at 25 +/- 1 degC. The class given is physicochemical.
Series [2] has as its target T1, Bifunctional epoxide hydrolase 2 (Homo sapiens, UniProt P34913).
T1 sequence (P34913 whole entry): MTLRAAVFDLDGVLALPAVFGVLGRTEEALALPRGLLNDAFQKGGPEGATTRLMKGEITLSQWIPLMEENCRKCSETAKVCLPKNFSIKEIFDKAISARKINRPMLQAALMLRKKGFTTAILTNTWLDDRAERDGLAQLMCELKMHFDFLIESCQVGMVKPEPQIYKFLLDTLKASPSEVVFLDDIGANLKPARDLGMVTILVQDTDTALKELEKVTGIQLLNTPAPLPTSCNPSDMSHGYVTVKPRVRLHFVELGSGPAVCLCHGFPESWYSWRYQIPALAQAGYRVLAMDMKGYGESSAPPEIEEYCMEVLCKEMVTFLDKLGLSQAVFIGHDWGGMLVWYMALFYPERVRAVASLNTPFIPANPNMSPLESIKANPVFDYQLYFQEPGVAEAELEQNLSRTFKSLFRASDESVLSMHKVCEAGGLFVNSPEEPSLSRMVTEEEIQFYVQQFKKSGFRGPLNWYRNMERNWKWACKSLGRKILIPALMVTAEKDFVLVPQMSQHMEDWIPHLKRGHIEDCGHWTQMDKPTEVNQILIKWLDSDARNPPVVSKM
As to the kind of experiment: Inhibition of human recombinant soluble epoxide hydrolase using cyano(6-methoxy-naphthalen-2-yl)methyl-trans-[(3-phenyloxiran-2-yl)methyl]carbonate as substrate after 5 mins by fluorescence assay.

Series [3] concerns the target T1, Bifunctional epoxide hydrolase 2. Put plainly: Inhibition of soluble epoxide hydrolase (unknown origin).

In brackets after ≈: the same amount, converted by molar mass.

As a reminder, the solubility is the dissolved amount per volume that the medium holds. Lower therefore signals a poorly soluble substance. Usually IC50 stands for the midpoint of a concentration-inhibition curve.

In series [1], `CC(C)(C)OC(=O)N1CCN(C(=O)c2ccc(NC(=O)NC34CC5CC(CC(C5)C3)C4)cc2)CC1` gave a solubility of 500 µg/mL (≈ 1040 µM). In addition, the IC50 in series [2] was determined as 0.0005 µM.
`O=C(NC12CC3CC(CC(C3)C1)C2)N1CCNCC1`: the IC50 in series [2] turned out to be 100 µM.
As for `O=C(Nc1cccc(C(=O)N2CCNCC2)c1)NC12CC3CC(CC(C3)C1)C2`, the solubility in series [1] is 1150 µg/mL (≈ 3010 µM). Further, the 50% inhibitory concentration (IC50) in series [2] worked out at 0.133 µM.
`CC(C)(C)OC(=O)N1CCN(CCCOc2ccc(NC(=O)NC34CC5CC(CC(C5)C3)C4)c3cccnc23)CC1` displayed a solubility in series [1] of 150 µg/mL (≈ 266 µM). In addition, the IC50 in series [2] came out at 0.0068 µM.
Regarding `O=C(NCC[C@H]1CN[C@@H](Cc2ccccc2)CN1)NC12CC3CC(CC(C3)C1)C2`, in series [3], the IC50 came out at 1.37 µM.
With `CC(C)(C)OC(=O)N1CCN(C(=O)NC23CC4CC(CC(C4)C2)C3)CC1`, in series [2], the IC50 worked out at 0.49 µM.
For the compound `CC(=O)N1CCN(CCCCOc2cccc(NC(=O)CC34CC5CC(CC(C5)C3)C4)c2)CC1`, the solubility in series [1] came to 160 µg/mL (≈ 342 µM). Besides, in series [2], the IC50 amounted to 0.0006 µM.
The matching figures for `CC(C)(C)OC(=O)N1CCN(C(=O)c2cccc(NC(=O)NC34CC5CC(CC(C5)C3)C4)c2)CC1`: 210 µg/mL (≈ 435 µM) and 0.0073 µM.
Turning to `CS(=O)(=O)N1CCN(C(=O)c2cccc(NC(=O)NC34CC5CC(CC(C5)C3)C4)c2)CC1`, in series [1], the solubility turned out to be 130 µg/mL (≈ 282 µM). In series [2], the IC50 is 0.0418 µM.
Taken in the same sequence, the figures for `CC(C)(C)OC(=O)N1CCN(CCCCOc2cccc(NC(=O)CC34CC5CC(CC(C5)C3)C4)c2)CC1` were 180 µg/mL (≈ 342 µM) and 0.0004 µM.
Taken in the same sequence, the figures for `CC(=O)N1CCN(C(=O)c2cccc(NC(=O)NC34CC5CC(CC(C5)C3)C4)c2)CC1` were 890 µg/mL (≈ 2100 µM) and 0.0463 µM.
The matching figures for `CS(=O)(=O)N1CCN(C(=O)c2ccc(NC(=O)NC34CC5CC(CC(C5)C3)C4)cc2)CC1`: 860 µg/mL (≈ 1870 µM) and 0.001 µM.
`CS(=O)(=O)N1CCN(CCCCOc2cccc(NC(=O)CC34CC5CC(CC(C5)C3)C4)c2)CC1` yielded a solubility in series [1] of 170 µg/mL (≈ 337 µM). Also, the IC50 in series [2] was 0.0005 µM.
In the case of `CC(=O)N1CCN(C(=O)CCC(=O)N2CCC(NC(=O)NC34CC5CC(CC(C5)C3)C4)CC2)CC1`, the IC50 in series [2] was determined as 0.0447 µM.
In series [1], `CC(=O)N1CCN(CCCOc2ccc(NC(=O)NC34CC5CC(CC(C5)C3)C4)c3cccnc23)CC1` returned a solubility of 130 µg/mL (≈ 257 µM). Also, in series [2], the IC50 was determined as 0.142 µM.
Taken in the same sequence, the figures for `CC(=O)N1CCN(C(=O)c2ccc(NC(=O)NC34CC5CC(CC(C5)C3)C4)cc2)CC1` were 530 µg/mL (≈ 1250 µM) and 0.009 µM.
Regarding `CC(=O)N1CCN(C(=O)NC23CC4CC(CC(C4)C2)C3)CC1`, the IC50 in series [2] is 0.321 µM.
The same measure, in the same setting: for `CN1CCN(C(=O)NC23CC4CC(CC(C4)C2)C3)CC1` the value was 0.0637 µM.
In series [1], `O=C(Nc1ccc(C(=O)N2CCNCC2)cc1)NC12CC3CC(CC(C3)C1)C2` had a solubility of 1960 µg/mL (≈ 5120 µM). In series [2], the IC50 came to 0.0671 µM.
In series [1], `CC(C)(C)OC(=O)N1CCN(C(=O)CCC(=O)N2CCC(NC(=O)NC34CC5CC(CC(C5)C3)C4)CC2)CC1` displayed a solubility of 470 µg/mL (≈ 861 µM). Besides, the IC50 in series [2] is 0.0188 µM.
Consider `O=C(NC1CCN(C(=O)CCC(=O)N2CCNCC2)CC1)NC12CC3CC(CC(C3)C1)C2`, for which, in series [1], the solubility came to 8000 µg/mL (≈ 18000 µM). Further, the IC50 in series [2] came to 0.0773 µM.
